In patent publication US6602487B1, “Methods and tests for producing and for inhibiting coronary artery vasospasms” (Dimera Incorporated, priority 1997, dated 2003):
Where “and” joins values, the source holds several entries; their conditions need not be identical. Identical values can stand only once.

Assay: Progesterone serum levels after topical ProGest cream in menopausal or postmenopausal women
Assay type: in vivo, human
Conditions: topical ProGest cream 2 ml, per patient
Method: An open label, controlled study was carried out in six healthy menopausal or postmenopausal women using no over-the-counter or prescription medications, medical foods or dietary supplements which would influence progesterone levels. Menopausal or postmenopausal status was determined by clinical methods. The inclusion criteria were low estrogen levels (less than or equal to 25 picograms per ml); non-use of progesterone for two weeks prior to the beginning of the study, and four weeks if medroxyprogesterone acetate was used; a body mass index less than 30; age between 40 and 65; non-smoker; at least six months after menopause (last bleeding); normal mammogram and pap smear within the past year; and reasonable reliability and client compliance. […] The cream was to be applied in 2 ml amounts on calendar days 2-15 at 8 a.m. Applications were increased to a second 2 ml application at 8 p.m. on calendar days 16-30. In addition, estrogen was applied as a […] patch. The patch used was Vivelle®, Ciba (now Novartis), Summit, N.J. The Vivelle® patch (0.05 mg/day) was applied on calendar days 0, 3, 7, 10, 14, 17, 21, 24 and 28.
Estrogen and progesterone serum levels were determined by chemiluminescence and were conducted on calendar days 2, 9, 16, 23, and 30 at times indicated.

Progesterone Levels (Week 0, 1/2 H): 1.6 Nanograms/ml | Progesterone Levels (Week 0, 1 H): 3.1 Nanograms/ml | Progesterone Levels (Week 0, 2 H): 2.8 Nanograms/ml | Progesterone Levels (Week 0, 3 H): 3.5 Nanograms/ml | Progesterone Levels (Week 0, 4 H): 3.3 Nanograms/ml | Progesterone Levels (Week 0, 6 H): 4.6 Nanograms/ml | Progesterone Levels (Week 0, 12 H): 2.4 Nanograms/ml | Progesterone Levels (Week 2, 1 H, listed as progesterone): 14.1 Nanograms/ml | concentration at 1 h (female, human, topical, Week 1, 1 H): 1 ng/mL | concentration (female, human, topical, Week 1, 3 H): 1 ng/mL
SMILES: CC(=O)[C@H]1CC[C@H]2[C@@H]3CCC4=CC(=O)CC[C@]4(C)[C@H]3CC[C@]12C [P, progesterone]
Progesterone Levels (Week 1, 0 H): 0.43 Nanograms/ml (2×) and 0.4 Nanograms/ml and 1.5 Nanograms/ml and 1.6 Nanograms/ml and 1.9 Nanograms/ml | Progesterone Levels (Week 1, 1 H (first of two columns headed 1 H), listed as Progesterone): 1.0 Nanograms/ml and 1.5 Nanograms/ml and 1.3 Nanograms/ml and 1.6 Nanograms/ml and 2.0 Nanograms/ml | Progesterone Levels (Week 1, 1 H (second of two columns headed 1 H), listed as Progesterone): 0.84 Nanograms/ml and 1.0 Nanograms/ml and 1.4 Nanograms/ml and 1.1 Nanograms/ml and 1.3 Nanograms/ml and 2.7 Nanograms/ml | Progesterone Levels (Week 1, 2 H): 0.49 Nanograms/ml and 0.82 Nanograms/ml and 0.57 Nanograms/ml and 1.0 Nanograms/ml and 1.2 Nanograms/ml and 1.4 Nanograms/ml | Progesterone Levels (Week 1, 3 H): 0.91 Nanograms/ml and 0.94 Nanograms/ml and 1.2 Nanograms/ml and 1.7 Nanograms/ml and 1.6 Nanograms/ml | Progesterone Levels (Week 1, 4 H): 0.96 Nanograms/ml and 1.0 Nanograms/ml and 1.1 Nanograms/ml (2×) and 1.3 Nanograms/ml and 2.3 Nanograms/ml | Progesterone Levels (Week 1, 6 H): 0.98 Nanograms/ml and 1.3 Nanograms/ml (2×) and 2.0 Nanograms/ml and 1.6 Nanograms/ml (2×) | Progesterone Levels (Week 1, 12 H): 0.87 Nanograms/ml and 0.96 Nanograms/ml and 1.3 Nanograms/ml and 1.6 Nanograms/ml and 1.8 Nanograms/ml and 2.0 Nanograms/ml | Progesterone Levels (Week 2, 0 H): 0.93 Nanograms/ml and 1.2 Nanograms/ml and 0.96 Nanograms/ml and 2 Nanograms/ml and 1.7 Nanograms/ml and 3.3 Nanograms/ml | Progesterone Levels (Week 2, 1 H, listed as Progesterone): 0.82 Nanograms/ml and 0.94 Nanograms/ml and 1.2 Nanograms/ml and 1.3 Nanograms/ml and 14.1 Nanograms/ml and 2.4 Nanograms/ml | Progesterone Levels (Week 2, 2 H): 1 Nanograms/ml and 0.81 Nanograms/ml and 1.2 Nanograms/ml and 1.7 Nanograms/ml and 3.3 Nanograms/ml and 2.9 Nanograms/ml | Progesterone Levels (Week 2, 4 H): 1.1 Nanograms/ml and 1.5 Nanograms/ml and 1.2 Nanograms/ml and 2.4 Nanograms/ml and 5 Nanograms/ml and 1.8 Nanograms/ml | Progesterone Levels (Week 2, 6 H): 1 Nanograms/ml and 1.3 Nanograms/ml and 1.2 Nanograms/ml and 1.5 Nanograms/ml and 3.2 Nanograms/ml and 2.9 Nanograms/ml | Progesterone Levels (Week 2, 8 H): 0.94 Nanograms/ml and 0.83 Nanograms/ml and 1.2 Nanograms/ml and 1.1 Nanograms/ml and 3 Nanograms/ml and 2.2 Nanograms/ml | Progesterone Levels (Week 2, 12 H): 0.84 Nanograms/ml and 0.94 Nanograms/ml and 1.2 Nanograms/ml and 2.8 Nanograms/ml and 3.1 Nanograms/ml | Progesterone Levels (Week 2, 24 H): 0.81 Nanograms/ml and 2 Nanograms/ml and 1.1 Nanograms/ml and 0.98 Nanograms/ml and 2.1 Nanograms/ml
